Laboratory results taken from US20220125959A1, “PROSTATE-SPECIFIC MEMBRANE ANTIGEN (PSMA) INHIBITORS AS DIAGNOSTIC AND RADIONUCLIDE THERAPEUTIC AGENTS” (FIVE ELEVEN PHARMA INC., priority 2019, published 2022).
Values joined by “and” are separate entries in the source; they are usually repeats but may differ in a detail not shown here. Identical values can stand only once.

How the values were obtained:
[1] = tested on: PSMA-positive cell line, PIP PC3; assay: In vitro cell uptake, PIP PC3 cells; type: cell-based
Protocol: To determine the cell uptakes of the [^177Lu] labelled ligands, 5×10^5 cells/well were grown in 12-well plates in 1 mL of medium for 48 h. The cells were washed twice with PBS, and 900 μL fresh media were added. […] All samples were prepared in triplicate. Following the incubation at 37° C., cells were washed twice to remove unbound activity and afterwards lysed in 1 mL of 0.5 M NaOH. Activity was measured in a gamma counter. Aliquots of the solution added to the cells were also measured for the calculation of the cellular uptake as % ID.

[2] = tested on: PSMA-negative cell line, PC3; assay: In vitro cell uptake, PC3 cells; type: cell-based; details: PC3 (do not express PSMA), 60 min
Protocol: To determine the cell uptakes of the [^177Lu] labelled ligands, 5×10^5 cells/well were grown in 12-well plates in 1 mL of medium for 48 h. The cells were washed twice with PBS, and 900 μL fresh media were added. Radiolabelled ligand was added and the PSMA-inhibitor (2-PMPA) was applied in a final concentration of 10 μM to determine unspecific binding. All samples were prepared in triplicate. Following the incubation at 37° C., cells were washed twice to remove unbound activity and afterwards lysed in 1 mL of 0.5 M NaOH. Activity was measured in a gamma counter. Aliquots of the solution added to the cells were also measured for the calculation of the cellular uptake as % ID.

[3] = tested on: PC3-PIP (PSMA positive) and PC-3 tumors (PSMA negative); assay: Biodistribution of 177Lu labeled compounds 4 and 7 in tumor bearing nude mice; type: in vivo, CD-1 male nude mice
Protocol: (§1) ^177Lu labeling: To 10 μg ligand (1 mg/mL DMSO) were added 15 μL of 2.0 N NaOAc, 400 μL 0.05 N HCl, and 20 μL ^177Lu-solution (780 μCi (Capintec setting 450 (reading×10)). The reaction was heated with a heating block at 95° C. for 1 hour in a 3 mL closed vial. After cooling, the sample was analyzed by HPLC (HPLC: Eclipse XDB-C18 150×4.6 mm, gradient, 1 mL/min; A: 0.1% TFA in water; B: 0.1% TFA in ACN: 0-4 min A/B 85/15%; 4-11 min: from 85/15 to 30/70%; 11-14 min: from 30/70% to 85/15%). Radiochemical purity of [^177Lu]4 (FIG. 2) and [^177Lu]7 was >98% and injected doses were stable at 48 hr after formulation.
(§2) For iv injection 150 μL of labeled solution was diluted with saline to 3.75mL. Mice were injected with 150 μL of formulated dose. Injected radioactivity was 100 μCi and PSMA ligand amount was constant at 0.72 nmole/mouse.
Biodistribution of [^68Ga]4, [^177Lu]4 and [^177Lu]7 was determined in nude mice bearing PIP PC3 (PSMA positive) and PC3 (PSMA negative) tumors on the left and right shoulder, respectively, over a period of 192 h (Table 3a, 3b and 3c). […] The uptake in PC3 tumors (PSMA negative) of both ligands, [^177Lu]4 and [^177Lu]7, was clearly much lower than those of PC-3 PIP tumors (PSMA positive).

[4] = Stability of injected doses after formulation; type: physicochemical; details: at 48 hr after formulation
Protocol: ^68Ga labeling: To 15 nmole ligand 4 (1 mg/mL DMSO) were added 20 μL of 2.0 N NaOAc, 500 μL ^68Ga-solution (2.25 mCi). The reaction was heated in a heating block at 90° C. for 10 minutes in a 3 mL closed vial. After cooling, the sample was analyzed by HPLC (HPLC: Eclise XDB C18 150×4.6 mm, gradient, 2 mL/min; A: 0.1% TFA in water; B: 0.1% TFA in ACN: 0-2 min 100% A; 2-4 min: from 0% to 100% B; 4-9 min: 100% B; 9-10 min: from 100% to 0% B). Radiochemical purity of [^68Ga]4 was >99% RCP (FIG. 1) and injected doses were stable at 2 hr after formulation.
as §1, §2

[5] = PIP PC3, 60 min, with PSMA inhibitor (2-PMPA, 2 uM)

## O=C(O)CC[C@H](NC(=O)N[C@@H](CCCCNC(=O)[C@H](Cc1ccc2ccccc2c1)NC(=O)[C@H]1CC[C@H](CNC(=O)CN2CCN(CC(=O)O)CCN(CC(=O)O)CCN(CC(=O)O)CC2)CC1)C(=O)O)C(=O)O.[177Lu] [[^177Lu]PSMA-617, reference compound]
[1]; PIP PC3, 5 min
  In vitro cell uptake: 3.5 % ID per 5 × 10^5 cells
[1]; PIP PC3, 15 min
  In vitro cell uptake: 5.8 % ID per 5 × 10^5 cells
[1]; PIP PC3, 30 min
  In vitro cell uptake: 6.8 % ID per 5 × 10^5 cells
[1]; PIP PC3, 60 min
  In vitro cell uptake: 8.2 % ID per 5 × 10^5 cells
[1]; [5]
  In vitro cell uptake: 1.0 % ID per 5 × 10^5 cells
[1]; PIP PC3, 120 min
  In vitro cell uptake: 9.6 % ID per 5 × 10^5 cells
[2]
  In vitro cell uptake: 0.3 % ID per 5 × 10^5 cells

## O=C(O)CC[C@H](NC(=O)N[C@@H](CCCCNC(=O)[C@H](Cc1ccccc1)NC(=O)COc1ccc(C[C@H](NC(=O)CNC(=O)CCC(C(=O)O)N2CCN(CC(=O)O)CCN(C(CCC(=O)NCCOCCOCCNC(=O)CCCc3ccc(I)cc3)C(=O)O)CCN(CC(=O)O)CC2)C(=O)O)cc1)C(=O)O)C(=O)O.[177Lu] (some centres unmarked) [[^177Lu]7]
[1]; PIP PC3, 5 min
  In vitro cell uptake: 5.0 % ID per 5 × 10^5 cells
[1]; PIP PC3, 15 min
  In vitro cell uptake: 7.8 % ID per 5 × 10^5 cells
[1]; PIP PC3, 30 min
  In vitro cell uptake: 10.1 % ID per 5 × 10^5 cells
[1]; PIP PC3, 60 min
  In vitro cell uptake: 11.4 % ID per 5 × 10^5 cells
[1]; [5]
  In vitro cell uptake: 1.3 % ID per 5 × 10^5 cells
[1]; PIP PC3, 120 min
  In vitro cell uptake: 11.9 % ID per 5 × 10^5 cells
[2]
  In vitro cell uptake: 0.7 % ID per 5 × 10^5 cells
[3]; 1 hr
  Biodistribution: Blood: 13.20 ± 3.17 % dose/g
  Biodistribution: Bone: 1.78 ± 0.97 % dose/g
  Biodistribution: Brain: 0.35 ± 0.04 % dose/g
  Biodistribution: Heart: 3.79 ± 0.67 % dose/g
  Biodistribution: Intestine: 1.89 ± 0.18 % dose/g
  Biodistribution: Kidney: 37.38 ± 4.08 % dose/g
  Biodistribution: Liver: 2.63 ± 0.69 % dose/g
  Biodistribution: Lung: 5.89 ± 0.53 % dose/g
  Biodistribution: Muscle: 1.88 ± 0.27 % dose/g
  Biodistribution: PC3 tumor: 5.26 ± 1.63 % dose/g
  Biodistribution: PIP PC3 tumor: 12.51 ± 0.94 % dose/g
  Biodistribution: Pancreas: 1.71 ± 0.40 % dose/g
  Biodistribution: Skin: 5.18 ± 1.59 % dose/g
  Biodistribution: Spleen: 2.87 ± 0.82 % dose/g
  Biodistribution: Stomach: 1.57 ± 0.39 % dose/g
[3]; 4 hrs
  Biodistribution: Blood: 12.06 % dose/g and 12.06 ± 2.26 % dose/g
  Biodistribution: Bone: 2.05 ± 0.89 % dose/g
  Biodistribution: Brain: 0.37 ± 0.08 % dose/g
  Biodistribution: Heart: 3.96 ± 0.63 % dose/g
  Biodistribution: Intestine: 2.97 ± 1.71 % dose/g
  Biodistribution: Kidney: 60.07 ± 2.41 % dose/g
  Biodistribution: Liver: 2.92 ± 0.85 % dose/g
  Biodistribution: Lung: 6.07 ± 0.66 % dose/g
  Biodistribution: Muscle: 1.55 ± 0.84 % dose/g
  Biodistribution: PC3 tumor: 5.17 ± 1.02 % dose/g
  Biodistribution: PIP PC3 tumor: 35.34 ± 12.11 % dose/g
  Biodistribution: Pancreas: 2.08 ± 0.82 % dose/g
  Biodistribution: Skin: 5.85 ± 2.04 % dose/g
  Biodistribution: Spleen: 6.16 ± 2.81 % dose/g
  Biodistribution: Stomach: 1.86 ± 1.12 % dose/g
[3]; 24 hrs (1 day)
  Biodistribution: Blood: 1.79 ± 0.98 % dose/g
  Biodistribution: Bone: 0.33 ± 0.14 % dose/g
  Biodistribution: Brain: 0.08 ± 0.04 % dose/g
  Biodistribution: Heart: 0.73 ± 0.42 % dose/g
  Biodistribution: Intestine: 0.41 ± 0.24 % dose/g
  Biodistribution: Kidney: 18.51 ± 7.79 % dose/g
  Biodistribution: Liver: 0.57 ± 0.27 % dose/g
  Biodistribution: Lung: 1.33 ± 0.85 % dose/g
  Biodistribution: Muscle: 0.36 ± 0.24 % dose/g
  Biodistribution: PC3 tumor: 2.15 ± 0.69 % dose/g
  Biodistribution: PIP PC3 tumor: 35.34±12.11 % dose/g and 34.36 ± 6.87 % dose/g
  Biodistribution: Pancreas: 0.45 ± 0.30 % dose/g
  Biodistribution: Skin: 1.37 ± 0.63 % dose/g
  Biodistribution: Spleen: 0.75 ± 0.17 % dose/g
  Biodistribution: Stomach: 0.36 ± 0.23 % dose/g
[3]; 48 hrs (2 days)
  Biodistribution: Blood: 0.84 ± 0.25 % dose/g
  Biodistribution: Bone: 0.19 ± 0.03 % dose/g
  Biodistribution: Brain: 0.06 ± 0.01 % dose/g
  Biodistribution: Heart: 0.59 ± 0.21 % dose/g
  Biodistribution: Intestine: 0.23 ± 0.07 % dose/g
  Biodistribution: Kidney: 16.13 ± 6.19 % dose/g
  Biodistribution: Liver: 0.42 ± 0.08 % dose/g
  Biodistribution: Lung: 0.93 ± 0.26 % dose/g
  Biodistribution: Muscle: 0.22 ± 0.07 % dose/g
  Biodistribution: PC3 tumor: 1.77 ± 0.55 % dose/g
  Biodistribution: PIP PC3 tumor: 41.80 ± 10.71 % dose/g
  Biodistribution: Pancreas: 0.39 ± 0.18 % dose/g
  Biodistribution: Skin: 0.63 ± 0.03 % dose/g
  Biodistribution: Spleen: 1.27 ± 1.12 % dose/g
  Biodistribution: Stomach: 0.18 ± 0.02 % dose/g
[3]; 96 hrs (4 days)
  Biodistribution: Blood: 0.11 ± 0.10 % dose/g
  Biodistribution: Bone: 0.11 ± 0.01 % dose/g
  Biodistribution: Brain: 0.02 ± 0.01 % dose/g
  Biodistribution: Heart: 0.30 ± 0.23 % dose/g
  Biodistribution: Intestine: 0.19 ± 0.18 % dose/g
  Biodistribution: Kidney: 4.28 ± 2.61 % dose/g
  Biodistribution: Liver: 0.22 ± 0.09 % dose/g
  Biodistribution: Lung: 0.31 ± 0.22 % dose/g
  Biodistribution: Muscle: 0.18 ± 0.12 % dose/g
  Biodistribution: PC3 tumor: 0.97 ± 0.56 % dose/g
  Biodistribution: PIP PC3 tumor: 24.23 ± 13.09 % dose/g
  Biodistribution: Pancreas: 0.09 ± 0.06 % dose/g
  Biodistribution: Skin: 0.46 ± 0.22 % dose/g
  Biodistribution: Spleen: 0.52 ± 0.30 % dose/g
  Biodistribution: Stomach: 0.09 ± 0.06 % dose/g
[3]; 192 hrs (8 days)
  Biodistribution: Blood: 0.01 ± 0.00 % dose/g
  Biodistribution: Bone: 0.09 ± 0.01 % dose/g
  Biodistribution: Brain: 0.01 ± 0.00 % dose/g
  Biodistribution: Heart: 0.07 ± 0.01 % dose/g
  Biodistribution: Intestine: 0.12 ± 0.05 % dose/g
  Biodistribution: Kidney: 1.58 ± 0.43 % dose/g
  Biodistribution: Liver: 0.12 ± 0.02 % dose/g
  Biodistribution: Lung: 0.09 ± 0.02 % dose/g
  Biodistribution: Muscle: 0.03 ± 0.00 % dose/g
  Biodistribution: PC3 tumor: 0.35 ± 0.03 % dose/g
  Biodistribution: PIP PC3 tumor: 13.14 ± 2.57 % dose/g
  Biodistribution: Pancreas: 0.03 ± 0.00 % dose/g
  Biodistribution: Skin: 0.16 ± 0.03 % dose/g
  Biodistribution: Spleen: 0.30 ± 0.07 % dose/g
  Biodistribution: Stomach: 0.10 ± 0.09 % dose/g
[3]; mouse, in vivo
  Time of highest uptake in PIP PC3 tumors: 48 h
  Uptake in PC3 tumors (PSMA negative) versus PC-3 PIP tumors (PSMA positive): much lower
[4]
  Stability of injected doses: stable
